In data set [1] the test system is MCF-7 (human mammary adenocarcinoma) cell line. Briefly: sulforhodamine B (SRB) cytotoxicity assay on MCF-7. The class given is cell-based. To be noted: mean ± SE of three or four assays, incubation 72 h, 48 h exposure. The procedure:
(§1) The compounds were screened in vitro against two cancer cell lines, MCF-7 and MDA-MB-231 (human mammary adenocarcinoma), and the normal cell line Cos-7 (African green monkey kidney fibroblast). The MCF-7 and MDA-MB231 cell lines were cultured in RPMI-1640 medium, and Cos-7 was cultured in DMEM (Dulbecco's Modified Eagle's Medium) and supplemented with 10% of fetal bovine serum, 2 mM L-glutamine, 10000 units/ml penicillin G sodium, 10000 μg/ml streptomycin sulfate, 25 μg amphotericin B (Gibco), and 1% of nonessential amino acids (Gibco). The cell lines were maintained at 37°C in a humidified atmosphere with 5% CO2. The viability of the cells used in the experiments exceeded 95%, as determined with trypan blue.
(§2) The human tumor cytotoxicity was assessed using the protein-binding dye sulforhodamine B (SRB) in a microculture assay to measure the cell growth as described by. The human tumors and normal cells were treated with the complexes. The cells were removed from the tissue culture flask by treatment with trypsin and diluted with fresh media from the cell suspension to 100 μl containing 5000–10000 cells per well. The cells were then pipetted into 96 microliter plates (Costar) and incubated at 37°C for 24 h in a 5% CO2 atmosphere. Subsequently, 100 μl of a solution of the corresponding organotin complex at different concentrations was added to each well. […] After the incubation period, the cells were fixed to the plastic substratum by the addition of 50 μl of cold trichloroacetic acid (50% aqueous).
(§3) The plates were incubated at 4°C for one hour, washed with tap water, and air-dried. The addition of […] stained trichloroacetic acid-fixed cells. The free SRB was removed by washing with 1% aqueous acetic acid, the plates were air-dried, and the dyed was solubilized by adding ten mM unbuffered Tris base (100 μl). The plates were placed on a shaker for 10 min, and the absorption was measured at 515 nm using an ELISA plate reader (Bio-Tex Instruments).

The test system of data set [2] is MDA-MB-231 (human mammary adenocarcinoma) cell line. As to the kind of experiment: sulforhodamine B (SRB) cytotoxicity assay on MDA-MB-231. The class given is cell-based. To be noted: mean ± SE of three or four assays, incubation 72 h, 48 h exposure. The procedure: as §1, §2, §3
Data set [3] concerns COS-7 (African green monkey kidney fibroblast) normal cell line. Briefly: sulforhodamine B (SRB) cytotoxicity assay on normal cell line COS-7. The format is cell-based. The following applies: for IC50: normal cell line, SRB assay, mean ± SE of three or four assays; for Non-Cytotoxic concentration on normal cell line COS-7: nondetectable effect on cell proliferation. As to the method: as §1
The human tumor cytotoxicity was assessed using the protein-binding dye sulforhodamine B (SRB) in a microculture assay to measure the cell growth as described by. The human tumors and normal cells were treated with the complexes. The cells were removed from the tissue culture flask by treatment with trypsin and diluted with fresh media from the cell suspension to 100 μl containing 5000–10000 cells per well. The cells were then pipetted into 96 microliter plates (Costar) and incubated at 37°C for 24 h in a 5% CO2 atmosphere. Subsequently, 100 μl of a solution of the corresponding organotin complex at different concentrations was added to each well. The cultures were exposed to the compounds for 48 h. After the incubation period, the cells were fixed to the plastic substratum by the addition of 50 μl of cold trichloroacetic acid (50% aqueous).
as §3
For orientation: Sulforhodamine B stains cellular protein and so reports cell mass.

Data set [4] is described as follows: stability in DMSO-d6 by 1H NMR. The class given is physicochemical. The following applies: DMSO-d6 solution, up to 72 h. As to the method:
The stability of the complexes in biological media was tested to evaluate their cytotoxicity. The compounds were dissolved in a DMSO-Tris-HCl buffer (3 : 7 v/v) over a 72 h period, and the UV-Vis spectra were recorded at 0 and 72 h. ^1H NMR spectra in DMSO-d6 of complexes 1a, 1d, 2a, 2d, 3a, and 3d were also acquired at 0, 24, 56, and 72 h.

For another data set, the system named is MDA-MB-231 cell line. As to the kind of experiment: morphological changes, Giemsa stain light microscopy, MDA-MB-231. The class given is cell-based, human. To be noted: 48 h treatment. As to the method:
(§4) To evaluate the morphological alterations induced by organotin(IV) complexes, MCF-7 and MDA-MB231 cell lines were cultured on a tissue culture flask with or without different treatments for 48 h. After incubation, cells were washed two times with PBS, fixed with methanol 100%, and stained with Wright-Giemsa (Sigma-Aldrich, WG32-1L). The culture flasks were examined under an Olympus IX71 Inverted Fluorescence Phase Contrast Microscope. The images were recorded with a Nikon Coolpix 4300 digital camera using the 20x objectives and analyzed by ImageJ software.

The next data set concerns MCF-7 cell line. As to the kind of experiment: morphological changes, Giemsa stain light microscopy, MCF-7. The format is cell-based, human. To be noted: 48 h treatment. As to the method:
as §4

Broadly, the IC50 is the concentration that inhibits the measured activity by half. Turning to `N.N.[Cl][Pt][Cl]` [Cisplatin, reference compound], the IC50 in data set [1] worked out at 5300 ± 500 nM; in data set [2], 27700 nM; in data set [3] it was 7170 ± 600 nM.

Take `CCC[CH2][Sn]1([CH2]CCC)[O]c2cc(C)oc(=O)c2C(C)=NN=C(N)[S]1` [Compound 1a, 4-Amino-2,2-dibutyl-7,10-dimethylpyrane[3,4-h]-1,3,5,6,2-oxathiadiazastannonin-8-one]: the concentration for half-maximal inhibition (IC50) came out at 380 ± 30 nM in data set [1], 120 ± 10 nM in data set [2] and 490 ± 30 nM in data set [3]. In addition, the “Non-Cytotoxic concentration on normal cell line COS-7” value (shortened to “Non-Cytotoxic concentration”) in data set [3] amounted to 0.02 µM. Also, in data set [4], the “stability by 1H NMR” value is given as “good stability”. Moreover, the “morphological alterations MDA-MB-231” value in the data set on MDA-MB-231 cell line is reported as “Cell density decreased”.

Regarding `CCCCCCC[CH2][Sn]1([CH2]CCCCCCC)[O]c2cc(C)oc(=O)c2C(C)=NN=C(N)[S]1` [Compound 1b, 4-Amino-2,2-dioctyl-7,10-dimethylpyrane-[3,4-h]-1,3,5,6,2-oxathiadiazastannonin-8-one], the half-inhibitory concentration (IC50) stood at 8650 ± 700 nM in data set [1], 11000 ± 1500 nM in data set [2] and 12200 ± 300 nM in data set [3]. In addition, the “Non-Cytotoxic concentration” value in data set [3] is 0.2 µM.

Consider `CC1=NN=C(N)[S][Sn]([c]2ccccc2)([c]2ccccc2)[O]c2cc(C)oc(=O)c21` [Compound 1c, 4-Amino-2,2-diphenyl-7,10-dimethylpyrane[3,4-h]-1,3,5,6,2-oxathiadiazastannonin-8-one], for which the IC50 turned out to be 611 ± 20 nM in data set [1], 170 ± 10 nM in data set [2] and 680 ± 50 nM in data set [3]. Besides, the “Non-Cytotoxic concentration” value in data set [3] amounted to 0.02 µM. Further, in the data set with MDA-MB-231 cell line, the “morphological alterations MDA-MB-231” value is recorded as “Cell density decreased”.

Regarding `CC1=NN=C(N)[S][Sn]([CH]2CCCCC2)([CH]2CCCCC2)[O]c2cc(C)oc(=O)c21` [Compound 1d, 4-Amino-2,2-dicyclohexyl-7,10-dimethylpyrane[3,4-h]-1,3,5,6,2-oxathiadiazastannonin-8-one], the IC50 turned out to be 203 ± 8 nM in data set [1], 119 ± 3 nM in data set [2] and 180 ± 6 nM in data set [3]. For the same compound, in data set [3], the “Non-Cytotoxic concentration” value is on record as 0.01 µM. Besides, the “stability by 1H NMR” value in data set [4] was “good stability”.

Regarding `CC1=NN=C(N)[S][Sn]([CH2][Si](C)(C)C)([CH2][Si](C)(C)C)[O]c2cc(C)oc(=O)c21` [Compound 1e, 4-Amino-2,2-bis(trimethylsilyl)methyl-7,10-dimethylpyrane[3,4-h]-1,3,5,6,2-oxathiadiazastannonin-8-one], the half-maximal inhibitory concentration (IC50) stood at 180 ± 5 nM in data set [1], 42 ± 8 nM in data set [2] and 140 ± 10 nM in data set [3]. In addition, in data set [3], the “Non-Cytotoxic concentration” value is on record as 0.01 µM.

In the case of `CCC[CH2][Sn]1([CH2]CCC)[O]c2cc(C)oc(=O)c2C(C)=NN=C(CN)[S]1` [Compound 2a, 2,2-Dibutyl-7,10-dimethyl-4-(aminomethyl) Pyrane[3,4-h]-1,3,5,6,2-oxathiadiazastannonin-8-one], the IC50 in data set [1] stood at 210 ± 40 nM; in data set [2], 310 ± 20 nM; in data set [3], 620 ± 60 nM. Besides, the “Non-Cytotoxic concentration” value in data set [3] was found to be 0.01 µM. In data set [4], the “stability by 1H NMR” value is on record as “good stability”.

In the case of `CCCCCCC[CH2][Sn]1([CH2]CCCCCCC)[O]c2cc(C)oc(=O)c2C(C)=NN=C(NC)[S]1` [Compound 2b, 2,2-Dioctyl-7,10-dimethyl-4-(aminomethyl) Pyrane[3,4-h]-1,3,5,6,2-oxathiadiazastannonin-8-one], the IC50 in data set [1] was determined as 1390 ± 30 nM; in data set [2], 3280 ± 80 nM; in data set [3] it was 11600 ± 800 nM. In addition, in data set [3], the “Non-Cytotoxic concentration” value is given as 0.2 µM. Besides, in the data set on MCF-7 cell line, the “morphological alterations MCF-7” value was “Cell density decreased”.

Take `CC1=NN=C(CN)[S][Sn]([c]2ccccc2)([c]2ccccc2)[O]c2cc(C)oc(=O)c21` [Compound 2c, 2,2-Diphenyl-7,10-dimethyl-4-(aminomethyl) Pyrane[3,4-h]-1,3,5,6,2-oxathiadiazastannonin-8-one]: the half-maximal inhibitory concentration (IC50) is 1080 ± 10 nM in data set [1], 1020 ± 30 nM in data set [2] and 1150 ± 100 nM in data set [3]. In addition, the “Non-Cytotoxic concentration” value in data set [3] is reported as 0.02 µM.

As to `CC1=NN=C(CN)[S][Sn]([CH]2CCCCC2)([CH]2CCCCC2)[O]c2cc(C)oc(=O)c21` [Compound 2d, 2,2-Dicyclohexyl-7,10-dimethyl-4-(aminomethyl) Pyrane[3,4-h]-1,3,5,6,2-oxathiadiazastannonin-8-one], the IC50 in data set [1] amounted to 200 ± 2 nM; in data set [2] it was 87 ± 200 nM; in data set [3], 280 ± 10 nM. Also, the “Non-Cytotoxic concentration” value in data set [3] is reported as 0.01 µM. The “stability by 1H NMR” value in data set [4] is reported as “good stability”.

`CC1=NN=C(CN)[S][Sn]([CH2][Si](C)(C)C)([CH2][Si](C)(C)C)[O]c2cc(C)oc(=O)c21` [Compound 2e, 2,2-Bis(trimethylsilyl)methyl-7,10-dimethyl-4-(aminomethyl) Pyrane[3,4-h]-1,3,5,6,2-oxathiadiazastannonin-8-one]: the half-maximal inhibitory concentration (IC50) in data set [1] is 150 ± 20 nM; in data set [2], 120 ± 8 nM; in data set [3], 290 ± 30 nM. The “Non-Cytotoxic concentration” value in data set [3] came to 0.01 µM. The “morphological alterations MCF-7” value in the data set on MCF-7 cell line is recorded as “cytoplasm vacuolization”.

On to `CCC[CH2][Sn]1([CH2]CCC)[O]c2cc(C)oc(=O)c2C(C)=NN=C(Nc2ccccc2)[S]1` [Compound 3a, 2,2-Dibutyl-7,10-dimethyl-4-(aminophenyl) Pyrane[3,4-h]-1,3,5,6,2-oxathiadiazastannonin-8-one], for which the concentration for half-maximal inhibition (IC50) came to 210 ± 9 nM in data set [1], 100 ± 10 nM in data set [2] and 340 ± 10 nM in data set [3]. Besides, in data set [3], the “Non-Cytotoxic concentration” value was found to be 0.02 µM. The “stability by 1H NMR” value in data set [4] is “good stability”.

Consider `CCCCCCC[CH2][Sn]1([CH2]CCCCCCC)[O]c2cc(C)oc(=O)c2C(C)=NN=C(Nc2ccccc2)[S]1` [Compound 3b, 2,2-Dioctyl-7,10-dimethyl-4-(aminophenyl) Pyrane[3,4-h]-1,3,5,6,2-oxathiadiazastannonin-8-one], for which the half-inhibitory concentration (IC50) was 730 ± 100 nM in data set [1], 540 ± 80 nM in data set [2] and 1600 ± 200 nM in data set [3]. Besides, in data set [3], the “Non-Cytotoxic concentration” value was 0.01 µM.

With `CC1=NN=C(Nc2ccccc2)[S][Sn]([c]2ccccc2)([c]2ccccc2)[O]c2cc(C)oc(=O)c21` [Compound 3c, 2,2-Diphenyl-7,10-dimethyl-4-(aminophenyl) Pyrane[3,4-h]-1,3,5,6,2-oxathiadiazastannonin-8-one], the figures for the IC50 in data set [1], in data set [2] and in data set [3] were 160 ± 10 nM, 490 ± 2 nM and 250 ± 6 nM, respectively. In addition, the “Non-Cytotoxic concentration” value in data set [3] stood at 0.01 µM.

Consider `CC1=NN=C(Nc2ccccc2)[S][Sn]([CH]2CCCCC2)([CH]2CCCCC2)[O]c2cc(C)oc(=O)c21` [Compound 3d, 2,2-Dicyclohexyl-7,10-dimethyl-4-(aminophenyl) Pyrane[3,4-h]-1,3,5,6,2-oxathiadiazastannonin-8-one], for which the 50% inhibitory concentration (IC50) in data set [1] was 160 ± 6 nM; in data set [2] it was 70 ± 5 nM; in data set [3], 160 ± 20 nM. The “Non-Cytotoxic concentration” value in data set [3] is 0.01 µM. In the data set with MDA-MB-231 cell line, the “morphological alterations MDA-MB-231” value is “chromatin condensation”.
